Results: article PMC8667045, “Into Deep Water: Optimizing BCL6 Inhibitors by Growing into a Solvated Pocket” (Journal of Medicinal Chemistry, 2021)
Converted amounts (≈) assume the structure as drawn. “And” between values parts separate entries of the source, which are not always exact repeats. Equal entries are not always repeated. Where two headings read alike, the source gives them in different places.

Experiments:
HPLC solubility assay = format: physicochemical; conditions: PBS buffer, PBS pH 7.4, 1% DMSO, room temperature
Protocol: 3. Supplementary experimental: physicochemical assays […]
3.2 HPLC solubility assay
DMSO. Following shaking of the suspension on a Bohdan Shaker at 500 rpm for 2 hours at room […]
200 µL of the supernatant was transferred to a 2 mL Agilent vial containing 50 µL of DMSO (Sigma […]
detection using an external standard which was prepared by pipetting 10 µL of the same batch of […]
The detail of the HPLC method is as following: chromatographic separation at 30°C is carried out over a 5 minute gradient elution method from 90:10 to 10:90 water:methanol (both modified with 0.1% formic acid) at a flow rate of 1.5 mL/min. Calibration curve is prepared by injecting 0.5, 2.5, and 5 µL of compound external standard.
62.5 µL of compound solubility sample.

[1] = PAMPA passive permeability pH 7.4; conditions: for PAMPA7.4: pH 7.4, passive permeability Pe
BCL6 BTB domain [2] = target: T1, BCL6 BTB domain (Homo sapiens, UniProt P41182); assay: biochemical; conditions: for BCL6 TR-FRET pIC50 mean: mean of n replicates
Protocol: Supplementary experimental: protein production, purification and crystallography
3C protease cleavage site.
used without cleaving the tag, as a 6His was needed to bind to the anti-6His-Terbium antibody. For
For both plasmid constructs described above, transformed BL21-AI E. coli cells were grown in LB
carried out at 18 °C for 18 hours. Cells were harvested by centrifugation (5500 g for 30 minutes at 4
oC) and stored at -80 °C.
Cells were re-suspended in a buffer composed of 20 mM Tris pH 8, 250 mM NaCl, 1 mM MgCl2, 0.5
Cells were lysed by sonication followed by centrifugation at 21,000 g for 45 minutes at 4 °C. […]
The final protein was assessed for purity
and molar mass by SDS-PAGE and high-resolution mass spectrometry, respectively.
(§1) directly eluted from the HisTrap FF column without HRV-3C treatment, and submitted to Superdex75
gel filtration as described above. […]
2. Supplementary experimental: biological assay conditions
IC50 values were determined using
a sigmoidal four-parameter logistic fit equation.

BCL6 BTB domain [3] = target: T1, BCL6 BTB domain; assay: Rapid X-ray screen: ligand density in extended pocket of BCL6 BTB domain; design: made in house; host or cells: E. coli BL21-AI; conditions: crystals soaked with compound
Description: Furthermore, we speculated that these represent better starting points since the substituent can be modified further to derive additional interactions and more completely fill the extended pocket. […] Instead, we just checked for the presence of ligand density and, in particular, for electron density in the extended pocket.
as §1
gel filtration as described above.
NH2. A stock solution of WVIP peptide at 100 mM in 100 % DMSO was added to a 2 mg/mL solution
This mixture was then concentrated to a final
protein concentration of 4 mg/mL using a centrifugal concentrator with a 3 kDa molecular weight
complex plus 1 μL of a crystallisation solution consisting of 1 M K 2HPO4, 0.7 M NaH2PO4, 75 mM
drops, followed by 10-120 minutes incubation. Crystals were then cryo-protected in a solution
composed of the crystallisation reagent supplemented with 30 % ethylene glycol and cryo-cooled in
concentrated to a final protein concentration of 10 mg/mL using a centrifugal concentrator with a 3
kDa molecular weight cut-off. Crystals were grown at 18 °C in hanging drops composed of 1.5 μL of
and 0.80 M Na/K Tartrate, against 300 μL of crystallisation solution.
and compounds were soaked as described above for the other construct. Crystals were then cryo-
protected in a solution composed of the crystallisation reagent supplemented with 30 % ethylene
glycol and cryo-cooled in liquid nitrogen.
1.5 Crystallographic data collection, processing and refinement
X-ray data were collected at Diamond Light Source, Harwell campus, Oxfordshire, UK, on beamlines
Research, London, UK, on a Rigaku FRX-AFC11-VariMax Cu-VHF-Pilatus300K. Crystals obtained with […]

NMR solubility assay = format: physicochemical; conditions: HEPES buffer, 5% DMSO, room temperature
Protocol: 3. Supplementary experimental: physicochemical assays
The plate was then sealed and incubated at room temperature for 20 hours, without shaking. The plate was centrifuged again for 1 minute at […]
spectrometer equipped with a 5 mm TCI-CryoProbe. […]
deuterated solvent. […] All NMR data were acquired at the […]
contained 16k time-domain data points. Relaxation delay was set to 20 sec. […]

Measured logD7.4 = format: physicochemical; conditions: pH 7.4
[4] = TR-FRET IC50 individual replicates, single replicates, italic values used 10nM BCL6, otherwise 1nM BCL6
[5] = read-out: BCL6 TR-FRET Geo Mean IC50, geometric mean of n replicates, supplement
[6] = read-out: TR-FRET IC50, tables and figures
[7] = read-out: TR-FRET IC50 individual replicates, single replicates, italic values used 10nM BCL6, otherwise 1nM BCL6

## CC(Nc1cc(=O)n(C)c2ccc(Nc3ccnc(Cl)c3C#N)cc12)c1ncco1 (stereo not shown) [Compound 13b, 2-Chloro-4-((1-methyl-4-((1-(oxazol-2-yl)ethyl)amino)-2-oxo-1,2-dihydroquinolin-6-yl)amino)nicotinonitrile]
HPLC solubility assay
  solubility at 2 h: 2.8 µM (≈ 1.18 µg/mL)
[1]
  PAMPA7.4: 1.0 x10^-6 cms^-1

## CNC(=O)CNc1cc(=O)[nH]c2ccc(Nc3ccnc(Cl)c3C#N)cc12 [Compound 12e, 2-((6-((2-Chloro-3-cyanopyridin-4-yl)amino)-2-oxo-1,2-dihydroquinolin-4-yl)amino)-N-methylacetamide]
BCL6 BTB domain [2]; [4]
  IC50: 19.9 µM and 74.1 µM and 10.2 µM and 22.4 µM
BCL6 BTB domain [2]
  BCL6 TR-FRET pIC50 mean: 4.62 and 4.623
BCL6 BTB domain [2]; [5]
  IC50: 23.8 µM
BCL6 BTB domain [2]; [6]
  IC50: 23.8 µM
BCL6 BTB domain [2]; [7]
  IC50: 22.8 µM
HPLC solubility assay
  solubility at 2 h: 35 µM (≈ 13.4 µg/mL)

## N#Cc1c(Nc2ccc3[nH]c(=O)cc(N4CCCCC4)c3c2)ccnc1Cl [Compound 8b, 2-Chloro-4-((2-oxo-4-(piperidin-1-yl)-1,2-dihydroquinolin-6-yl)amino)nicotinonitrile]
BCL6 BTB domain [2]; [4]
  IC50: 1.57 µM and 1.24 µM and 0.92 µM and 0.54 µM and 2.32 µM
BCL6 BTB domain [2]
  BCL6 TR-FRET pIC50 mean: 5.93 and 5.929
BCL6 BTB domain [2]; [5]
  IC50: 1.18 µM
BCL6 BTB domain [2]; [6]
  IC50: 1.18 µM
BCL6 BTB domain [3]
  Ligand density in extended pocket: No

## CC(Nc1cc(=O)n(C)c2ccc(Nc3ccnc(Cl)c3C#N)cc12)c1ncccn1 (stereo not shown) [Compound 13e, 2-Chloro-4-((1-methyl-2-oxo-4-((1-(pyrimidin-2-yl)ethyl)amino)-1,2-dihydroquinolin-6-yl)amino)nicotinonitrile]
NMR solubility assay
  solubility at 20 h: 249 µM (≈ 108 µg/mL)
Measured logD7.4
  logD: 1.4
[1]
  PAMPA7.4: 1.4 x10^-6 cms^-1

## Cn1c(=O)ccc2cc(Nc3ccnc(Cl)c3C#N)ccc21 [Compound 2, 2-Chloro-4-((1-methyl-2-oxo-1,2-dihydroquinolin-6-yl)amino)nicotinonitrile]
BCL6 BTB domain [2]; [4]
  IC50: 2.28 µM and 4.29 µM and 4.07 µM and 1.38 µM
BCL6 BTB domain [2]
  BCL6 TR-FRET pIC50 mean: 5.57 and 5.565
BCL6 BTB domain [2]; [5]
  IC50: 2.72 µM
BCL6 BTB domain [2]; [6]
  IC50: 2.7 µM and 2.72 µM
HPLC solubility assay
  solubility at 2 h: 12 µM (≈ 3.73 µg/mL)

## CNC(=O)C(C)Nc1cc(=O)[nH]c2ccc(Nc3ccnc(Cl)c3C#N)cc12 (stereo not shown) [Compound 12a, 2-((6-((2-Chloro-3-cyanopyridin-4-yl)amino)-2-oxo-1,2-dihydroquinolin-4-yl)amino)-N-methylpropanamide]
BCL6 BTB domain [2]; [4]
  IC50: 0.62 µM and 0.49 µM and 0.58 µM and 0.51 µM and 0.66 µM and 0.47 µM and 0.46 µM and 0.5 µM and 0.74 µM and 0.48 µM and 0.65 µM
BCL6 BTB domain [2]
  BCL6 TR-FRET pIC50 mean: 6.26 and 6.258
BCL6 BTB domain [2]; [5]
  IC50: 0.552 µM
BCL6 BTB domain [2]; [6]
  IC50: 0.55 µM
HPLC solubility assay
  solubility at 2 h: 37 µM (≈ 14.7 µg/mL)
[1]; PAMPA, pH 7.4
  Papp: < 0.2 ×10⁻⁶ cm/s

## CN1CCN(c2cc(=O)[nH]c3ccc(Nc4ccnc(Cl)c4C#N)cc23)CC1 [Compound 8c, 2-Chloro-4-((4-(4-methylpiperazin-1-yl)-2-oxo-1,2-dihydroquinolin-6-yl)amino)nicotinonitrile]
BCL6 BTB domain [2]; [4]
  IC50: 5.77 µM and 1.24 µM and 2.44 µM and 2.9 µM
BCL6 BTB domain [2]
  BCL6 TR-FRET pIC50 mean: 5.58 and 5.578
BCL6 BTB domain [2]; [5]
  IC50: 2.64 µM
BCL6 BTB domain [2]; [6]
  IC50: 2.64 µM
BCL6 BTB domain [2]; [7]
  IC50: 2.55 µM
BCL6 BTB domain [3]
  Ligand density in extended pocket: No

## Cn1c(=O)n(C)c2cc(Nc3ccnc(Cl)c3C#N)ccc21 [Compound 1]
HPLC solubility assay
  solubility at 2 h: 16 µM (≈ 5.02 µg/mL)

## Cn1c(=O)cc(NC(C)(C)c2ncccn2)c2cc(Nc3ccnc(Cl)c3C#N)ccc21 [Compound 13g, 2-Chloro-4-((1-methyl-2-oxo-4-((2-(pyrimidin-2-yl)propan-2-yl)amino)-1,2-dihydroquinolin-6-yl)amino)nicotinonitrile]
NMR solubility assay
  solubility at 20 h: 15 µM (≈ 6.69 µg/mL)
Measured logD7.4
  logD: 1.9
[1]
  PAMPA7.4: 1.8 x10^-6 cms^-1

## N#Cc1c(Nc2ccc3[nH]c(=O)cc(N4CCOCC4)c3c2)ccnc1Cl [Compound 8d, 2-Chloro-4-((4-morpholino-2-oxo-1,2-dihydroquinolin-6-yl)amino)nicotinonitrile]
BCL6 BTB domain [2]; [4]
  IC50: 2.66 µM and 2.56 µM and 1.47 µM
BCL6 BTB domain [2]
  BCL6 TR-FRET pIC50 mean: 5.67 and 5.672
BCL6 BTB domain [2]; [5]
  IC50: 2.13 µM
BCL6 BTB domain [2]; [6]
  IC50: 2.13 µM
BCL6 BTB domain [2]; [7]
  IC50: 2.1 µM and 2.08 µM
BCL6 BTB domain [3]
  Ligand density in extended pocket: No
